Assay results from ChEMBL document CHEMBL4028802, “DILIrank: the largest reference drug list ranked by the risk for developing drug-induced liver injury in humans” (Drug Discov Today, 2016).

Key:
[1] = species: Homo sapiens; assay: Liver toxicity in human assessed as induction of drug-induced liver injury by measuring severity class index
[2] = species: Homo sapiens; assay: Liver toxicity in human assessed as induction of drug-induced liver injury by measuring verified drug-induced liver injury concern status
For DILI severity class in this document: key of the grades not given here.

Structure (SMILES) | DILI_severity_class [1] | DILI_Concern [2]
COc1ccc2c(c1)c(CC(=O)O)c(C)n2C(=O)c1ccc(Cl)cc1 [INDOMETHACIN] | 8 | Most-Dili-Concern
O=c1[nH]cnc2c1ncn2[C@H]1CC[C@@H](CO)O1 [DIDANOSINE] | 8 | Most-Dili-Concern
O=C(O)C1N=C(c2ccccc2)c2cc(Cl)ccc2NC1=O (stereo unspecified) [CLORAZEPIC ACID] | 3 | Ambiguous-Dili-Concern
CC1Cc2ccccc2N1NC(=O)c1ccc(Cl)c(S(N)(=O)=O)c1 (stereo unspecified) [INDAPAMIDE] | 5 | Ambiguous-Dili-Concern
C[C@@H](O[C@H]1OCCN(Cc2n[nH]c(=O)[nH]2)[C@H]1c1ccc(F)cc1)c1cc(C(F)(F)F)cc(C(F)(F)F)c1 [APREPITANT] | 3 | Ambiguous-Dili-Concern
Oc1ncnc2[nH]ncc12 [ALLOPURINOL] | 8 | Most-Dili-Concern
CC1COc2c(N3CCN(C)CC3)c(F)cc3c(=O)c(C(=O)O)cn1c23 (stereo unspecified) [OFLOXACIN] | 3 | Less-Dili-Concern
NC(N)=Nc1nc(CSCCC(N)=NS(N)(=O)=O)cs1 [FAMOTIDINE] | 3 | Less-Dili-Concern
CC(C)C(=O)Oc1ccc(CO)cc1[C@H](CCN(C(C)C)C(C)C)c1ccccc1 [FESOTERODINE] | 0 | No-Dili-Concern
C#CCN(C)[C@H](C)Cc1ccccc1 [SELEGILINE] | 0 | No-Dili-Concern
Nc1nc(=O)[nH]cc1F [FLUCYTOSINE] | 3 | Ambiguous-Dili-Concern
C[N+](C)(C)CCOC(=O)CCC(=O)OCC[N+](C)(C)C [SUXAMETHONIUM] | 0 | No-Dili-Concern
C[C@@H](NCCCc1cccc(C(F)(F)F)c1)c1cccc2ccccc12 | 0 | No-Dili-Concern
COC(=O)C1=C(C)NC(C)=C(C(=O)OCC(C)C)C1c1ccccc1[N+](=O)[O-] (stereo unspecified) [NISOLDIPINE] | 3 | Ambiguous-Dili-Concern
C#C[C@]1(O)CC[C@H]2[C@@H]3CCC4=CC(=O)CC[C@@H]4[C@H]3CC[C@@]21CC [LEVONORGESTREL] | 0 | No-Dili-Concern
CC[C@@H](CO)NC(=O)[C@@H]1C=C2c3cccc4c3c(cn4C)C[C@H]2N(C)C1 [METHYSERGIDE] | 0 | No-Dili-Concern
Nc1ccc(S(=O)(=O)Nc2ncccn2)cc1 [SULFADIAZINE] | 3 | Less-Dili-Concern
C[N+]1(C)[C@@H]2C[C@@H](OC(=O)[C@H](CO)c3ccccc3)C[C@H]1[C@@H]1O[C@@H]12.[Br-] [METHSCOPOLAMINE BROMIDE] | 0 | No-Dili-Concern
CNC[C@H](O)[C@@H](O)[C@H](O)[C@H](O)CO.CNC[C@H](O)[C@@H](O)[C@H](O)[C@H](O)CO.O=C(CCCCC(=O)Nc1c(I)cc(I)c(C(=O)O)c1I)Nc1c(I)cc(I)c(C(=O)O)c1I [IODIPAMIDE MEGLUMINE] | 0 | No-Dili-Concern
CC(C)C[C@H]1C(=O)N2CCC[C@H]2[C@]2(O)O[C@](NC(=O)[C@@H]3C=C4c5cccc6[nH]c(Br)c(c56)C[C@H]4N(C)C3)(C(C)C)C(=O)N12 [BROMOCRIPTINE] | 3 | Less-Dili-Concern
COc1ccc(OC)c(C(O)CNC(=O)CN)c1 (stereo unspecified) [MIDODRINE] | 0 | No-Dili-Concern
CC(C(=O)O)c1ccc2oc(-c3ccc(Cl)cc3)nc2c1 (stereo unspecified) [BENOXAPROFEN] | 8 | Most-Dili-Concern
N#C[C@@H]1C[C@@H]2C[C@@H]2N1C(=O)[C@@H](N)C12CC3CC(CC(O)(C3)C1)C2 [SAXAGLIPTIN ANHYDROUS] | 0 | No-Dili-Concern
